According to paper PMC7481761 (Virologica Sinica, 2020):
Read-outs that look alike come from different tables or passages of the source. Marks after values point to notes of the source that are not given here.

Columns and labels:
SARS-CoV-2 [1] = test: microbe, parasite or virus in culture; format: cell-based; details: for IC50: Severe acute respiratory syndrome coronavirus 2, Huh-7, 48 h
SARS-CoV-2 [2] = test: Time-of-drug-addition assay in Vero E6 cells; format: cell-based
SARS-CoV-2 [3] = format: cell-based
SARS-CoV-2 [4] = format: cell-based; remark: listed apart in the source
Vero E6 cells = details: read-out: CC50 (half cytotoxic concentration)
Huh7 cells = details: CCK-8 assay
in vitro [5] = details: African green monkey
[6] = In vivo plasma exposure in humans; parameters: species or system human
[7] = plasma; ref Cvetkovic and Goa (2003); cited from earlier work
SARS-CoV-2 [8] = format: cell-based; details: Vero E6 cells, CC50/IC50
in vitro [9] = details: human

## C#CC[C@@H](C(=O)N[C@H](/C=C/C(=O)OCC)C[C@@H]1CCNC1=O)n1cccc(NC(=O)c2cc(C)on2)c1=O [AG7404]
SARS-CoV-2 [1]
  IC50: 92.5 µM
SARS-CoV-2 [2]
  stage of infection at which the compound acts (time-of-drug-addition): inhibit SARS-CoV-2 at the stages post virus infection
SARS-CoV-2 [3]
  NP expression by IFA: confirmed by IFA
SARS-CoV-2 [4]
  inhibitory effect by IFA: confirmed by IFA
Vero E6 cells
  CC50: > 400 µM
Huh7 cells
  CC50: > 400 µM

## Cc1cccc(C)c1OCC(=O)N[C@@H](Cc1ccccc1)[C@@H](O)C[C@H](Cc1ccccc1)NC(=O)[C@H](C(C)C)N1CCCNC1=O [Lopinavir, lopinavir]
SARS-CoV-2 [1]
  IC50: 7.79 µM
SARS-CoV-2 [2]
  stage of infection at which the compound acts (time-of-drug-addition): inhibited SARS-CoV-2 infection after virus entry, but not during virus entry
SARS-CoV-2 [3]
  NP expression by IFA: decreased NP expression levels
SARS-CoV-2 [4]
  inhibitory effect by IFA: IFA confirmed the inhibitory effect
Huh7 cells
  CC50: 64.4 µM
In vitro [5]
  CC50: 80.8 µM

## CC(C)c1nc(CN(C)C(=O)N[C@H](C(=O)N[C@@H](Cc2ccccc2)C[C@H](O)[C@H](Cc2ccccc2)NC(=O)OCc2cncs2)C(C)C)cs1 [Ritonavir, ritonavir]
SARS-CoV-2 [1]
  IC50: 11.7 µM
SARS-CoV-2 [2]
  stage of infection at which the compound acts (time-of-drug-addition): inhibited SARS-CoV-2 infection after virus entry, but not during virus entry
[6]
  In vivo concentration Unbound Cmin: 0.0006 µmol/L
SARS-CoV-2 [3]
  NP expression by IFA: decreased NP expression levels
SARS-CoV-2 [4]
  inhibitory effect by IFA: IFA confirmed the inhibitory effect
[7]
  In vivo concentration Cmin: 0.038^e µmol/L

## CCOC(=O)/C=C/[C@H](C[C@@H]1CCNC1=O)NC(=O)[C@@H](CC(=O)[C@@H](NC(=O)c1cc(C)on1)C(C)C)Cc1ccc(F)cc1 [Rupintrivir, rupintrivir]
SARS-CoV-2 [8]
  selectivity index (SI): > 2.93
SARS-CoV-2 [1]; Huh7 cells, CC50/IC50
  selectivity index (SI): > 3.94
SARS-CoV-2 [1]
  IC50: 25.4 µM
SARS-CoV-2 [2]
  stage of infection at which the compound acts (time-of-drug-addition): inhibit SARS-CoV-2 at the stages post virus infection
SARS-CoV-2 [3]
  NP expression by IFA: confirmed by IFA
SARS-CoV-2 [4]
  inhibitory effect by IFA: confirmed by IFA
In vitro [5]
  CC50: > 100 µM
In vitro [9]
  CC50: > 100 µM
